Earlier results, collected in PMC9851200, “Multiparameter phenotypic screening for endogenous TFEB and TFE3 translocation identifies novel chemical series modulating lysosome function” (Autophagy, 2022).

Experiments:
Set-up in all cases: method as in original PKIS2 published data
[1] = molecular target: kinases (KINOMEscan panel) (Homo sapiens, UniProt P22694); details: PRKACB; Published KINOMEscan; ref original PKIS2 published data; cited from earlier work
[2] = molecular target: T1, kinases (KINOMEscan panel) (Homo sapiens, UniProt Q56UN5); details: Published KINOMEscan; ref original PKIS2 published data; cited from earlier work
T1 sequence (Q56UN5 1-1328): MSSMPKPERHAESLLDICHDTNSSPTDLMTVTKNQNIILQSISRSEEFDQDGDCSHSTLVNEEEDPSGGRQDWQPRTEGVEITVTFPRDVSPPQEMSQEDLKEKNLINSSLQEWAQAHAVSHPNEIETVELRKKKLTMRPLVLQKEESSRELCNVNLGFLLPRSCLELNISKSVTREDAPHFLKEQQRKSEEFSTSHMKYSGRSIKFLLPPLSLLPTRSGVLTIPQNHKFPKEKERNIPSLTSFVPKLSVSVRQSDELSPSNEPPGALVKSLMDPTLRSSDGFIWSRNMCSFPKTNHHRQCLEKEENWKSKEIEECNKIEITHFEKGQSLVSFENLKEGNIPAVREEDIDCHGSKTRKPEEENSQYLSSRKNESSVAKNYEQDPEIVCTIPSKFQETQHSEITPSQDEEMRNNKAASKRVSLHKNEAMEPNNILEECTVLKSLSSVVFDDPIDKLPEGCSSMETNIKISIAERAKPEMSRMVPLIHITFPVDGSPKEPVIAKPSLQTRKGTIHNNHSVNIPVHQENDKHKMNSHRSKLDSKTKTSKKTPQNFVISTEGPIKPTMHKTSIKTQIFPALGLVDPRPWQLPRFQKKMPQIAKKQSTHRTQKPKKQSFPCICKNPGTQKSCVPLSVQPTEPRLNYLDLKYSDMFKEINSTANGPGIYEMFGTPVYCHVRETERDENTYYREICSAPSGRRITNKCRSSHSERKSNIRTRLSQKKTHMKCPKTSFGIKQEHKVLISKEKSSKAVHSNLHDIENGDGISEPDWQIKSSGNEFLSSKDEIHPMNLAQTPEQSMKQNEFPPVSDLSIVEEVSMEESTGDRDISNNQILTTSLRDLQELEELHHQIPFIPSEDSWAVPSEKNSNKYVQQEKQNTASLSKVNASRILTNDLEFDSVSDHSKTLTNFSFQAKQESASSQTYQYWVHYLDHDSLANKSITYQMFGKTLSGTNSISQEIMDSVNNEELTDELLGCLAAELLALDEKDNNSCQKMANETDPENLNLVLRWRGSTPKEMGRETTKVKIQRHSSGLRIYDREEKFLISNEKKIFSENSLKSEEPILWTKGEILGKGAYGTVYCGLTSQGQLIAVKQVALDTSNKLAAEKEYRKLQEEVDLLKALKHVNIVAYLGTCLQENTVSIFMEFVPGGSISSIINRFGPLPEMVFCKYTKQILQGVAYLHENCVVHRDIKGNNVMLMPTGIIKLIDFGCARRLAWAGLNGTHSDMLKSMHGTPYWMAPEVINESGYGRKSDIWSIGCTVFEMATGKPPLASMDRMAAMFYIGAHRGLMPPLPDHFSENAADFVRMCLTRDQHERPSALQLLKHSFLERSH

[3] = molecular target: T2, kinases (KINOMEscan panel) (Homo sapiens, UniProt Q6P3R8); details: kinase NEK5; Published KINOMEscan; ref original PKIS2 published data; cited from earlier work
T2 sequence (Q6P3R8 1-708): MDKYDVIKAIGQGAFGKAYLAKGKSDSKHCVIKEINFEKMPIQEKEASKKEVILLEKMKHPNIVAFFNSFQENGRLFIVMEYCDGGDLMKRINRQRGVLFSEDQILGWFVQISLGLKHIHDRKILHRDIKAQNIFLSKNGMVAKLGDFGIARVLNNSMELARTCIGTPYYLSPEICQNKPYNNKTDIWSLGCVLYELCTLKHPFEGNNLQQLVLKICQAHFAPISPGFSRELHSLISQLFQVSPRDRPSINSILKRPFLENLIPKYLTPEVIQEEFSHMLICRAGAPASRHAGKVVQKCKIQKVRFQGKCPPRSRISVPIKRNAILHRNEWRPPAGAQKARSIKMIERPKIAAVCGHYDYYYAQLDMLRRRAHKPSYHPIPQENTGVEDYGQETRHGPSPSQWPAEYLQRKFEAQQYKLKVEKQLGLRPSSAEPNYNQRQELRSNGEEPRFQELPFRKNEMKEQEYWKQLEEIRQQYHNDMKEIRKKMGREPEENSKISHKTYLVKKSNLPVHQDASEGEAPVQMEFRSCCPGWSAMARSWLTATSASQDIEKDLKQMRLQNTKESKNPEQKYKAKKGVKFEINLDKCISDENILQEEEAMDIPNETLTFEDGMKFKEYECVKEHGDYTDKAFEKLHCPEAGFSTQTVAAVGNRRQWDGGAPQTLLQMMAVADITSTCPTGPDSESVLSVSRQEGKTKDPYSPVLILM

Cc1cccc(-c2nc(Nc3ccncc3)c3ccccc3n2)n1 [NK215]
KINOMEscan PRKACB [1]: 30
KINOMEscan MAP3K19 [2]: 0
KINOMEscan NEK5 [3]: 10
